BindingDB's records for doi:10.1021/jm050738x (University of Tokyo, 2006)

Assay: Antagonist activity assessed by differentiation of 1,25-D3-induced HL60 cells
For C=C1/C(=C\C=C2/CCC[C@@]3(C)C2CC[C@@H]3[C@H](C)C[C@H]2C[C@](C)(O)C(=O)N2Cc2ccc(OC)cc2)C[C@@H](O)C[C@@H]1O (some centres not stated), the IC50 was 660 nM. For C=C1/C(=C\C=C2/CCC[C@]3(C)[C@@H]([C@H](C)C[C@H]4C[C@](C)(O)C(=O)N4CCCCc4ccccc4)CC[C@@H]23)C[C@@H](O)C[C@@H]1O [(3S,5S)-5-((R)-2-((1R,3aS,7aR)-4-(2-((3S,5R)-3,5-dihydroxy-2-methylenecyclohexylidene)ethylidene)-7a-methyl-octahydro-1H-inden-1-yl)propyl)-3-hydroxy-3-methyl-1-(4-phenylbutyl)pyrrolidin-2-one], the IC50 was 390 nM. In the case of C=C1/C(=C\C=C2/CCC[C@]3(C)[C@@H]([C@H](C)C[C@H]4C[C@](C)(O)C(=O)N4Cc4ccccc4)CC[C@@H]23)C[C@@H](O)C[C@@H]1O [(3S,5S)-1-benzyl-5-((R)-2-((1R,3aS,7aR)-4-(2-((3S,5R)-3,5-dihydroxy-2-methylenecyclohexylidene)ethylidene)-7a-methyl-octahydro-1H-inden-1-yl)propyl)-3-hydroxy-3-methylpyrrolidin-2-one], the IC50 is reported as 700 nM. C=C1/C(=C\C=C2/CCC[C@]3(C)[C@@H]([C@H](C)C[C@H]4C[C@@](C)(O)C(=O)N4CCc4ccccc4)CC[C@@H]23)C[C@@H](O)C[C@@H]1O [(3R,5S)-5-((R)-2-((1R,3aS,7aR,E)-4-((Z)-2-((3S,5R)-3,5-dihydroxy-2-methylenecyclohexylidene)ethylidene)-7a-methyloctahydro-1H-inden-1-yl)propyl)-3-hydroxy-3-methyl-1-phenethylpyrrolidin-2-one] gave an IC50 of over 2000 nM. C=C1/C(=C\C=C2/CCC[C@]3(C)[C@@H]([C@H](C)C[C@H]4C[C@](C)(O)C(=O)N4CCc4ccccc4)CC[C@@H]23)C[C@@H](O)C[C@@H]1O [(3S,5S)-5-((R)-2-((1R,3aS,7aR)-4-(2-((3S,5R)-3,5-dihydroxy-2-methylenecyclohexylidene)ethylidene)-7a-methyl-octahydro-1H-inden-1-yl)propyl)-3-hydroxy-3-methyl-1-phenethylpyrrolidin-2-one] showed an IC50 of 207 nM. C=C1/C(=C\C=C2/CCC[C@@]3(C)C2CC[C@@H]3[C@H](C)C[C@H]2C[C@](C)(O)C(=O)N2C(C)C)C[C@@H](O)C[C@@H]1O (some centres not stated) gave an IC50 of over 1000 nM. Work on C=C1/C(=C\C=C2/CCC[C@]3(C)[C@@H]([C@H](C)C[C@H]4C[C@](C)(O)C(=O)N4CCCc4ccccc4)CC[C@@H]23)C[C@@H](O)C[C@@H]1O [(3S,5S)-5-((R)-2-((1R,3aS,7aR)-4-(2-((3S,5R)-3,5-dihydroxy-2-methylenecyclohexylidene)ethylidene)-7a-methyl-octahydro-1H-inden-1-yl)propyl)-3-hydroxy-3-methyl-1-(3-phenylpropyl)pyrrolidin-2-one] yielded an IC50 of 2200 nM.
